Test results as given in publication PMC6108835, “Target-Based Discovery of an Inhibitor of the Regulatory Phosphatase PPP1R15B” (Cell, 2018).

Columns and labels:
HD^82Q mice = assay: Treatment of HD^82Q (N171-82Q) mice, model of Huntington's disease; type: in vivo, mouse
Description: To produce an experimental group, HD^82Q transgenic males were crossed with C3H/B6 F1 wild-type females. 4 weeks old treatment- and test-naive transgenic mice and their wild-type littermate controls were randomized in different groups and treated with Raphin1 for the indicated time. Only males HD^82Q were used. Mice weight was collected weekly or bi-weekly.
Mice were culled by cervical dislocation, a part of cortex was extracted, fresh-frozen in liquid nitrogen and kept at −80°C until use. Tissue was homogenized and lysed in Laemmli Buffer (1 mL for 0.5 mg tissue). Lysates were boiled at 95°C for 5 min, sonicated and resolved on Bolt SDS-PAGE 4%–12% Bis-Tris gels (ThermoFisher Scientific). Proteins were transferred to the nitrocellulose membrane (Bio-Rad). Membrane was blocked in 5% skimmed milk for 30 min and then probed with primary antibodies followed by incubation with the appropriate horseradish peroxidase-conjugated secondary antibodies (Promega). Proteins were visualized using ECL Prime (GE Healthcare) and imaged in the Chemi-Smart 5000 (Vilber-Lourmat, France). SDS-resistant huntingtin assemblies were quantified using ImageJ (NIH, USA). The huntingtin assemblies were analyzed using the huntingtin 2B4 antibody (Euromedex (#HU-2B4), 1:1,000).
Mice were culled by cervical dislocation, a brain was fresh frozen in the O.C.T. compound (VWR International) and sectioned (14 μm) using Cryostat (Leica CM3050 S). […]
For quantification, motor cortex was imaged using a Nikon TiE automated fluorescence microscope under the control of NIS Elements software (Nikon UK). Images were taken using a 40X 0.95 NA lens, fluorescence filter sets matched to Hoechst 33342 and Alexa 488 and an Andor Neo sCMOS camera. […] Images were analyzed using the ‘general analysis’ tool in NIS Elements. […] The total number of nuclei per field and the total number of inclusions inside nuclei per field were counted in each filed. […] To check for systematic bias in our analysis due to variations in sample processing we also measured the average fluorescence intensity across the whole field. […]

R15A = R15A (Homo sapiens, UniProt O75807); assay: Limited trypsin digestion of R15A; set-up: cDNAs encoding amino acids 325-636 of R15A and 340-698 of R15B were cloned into pMAL-c5x; made in house; host or cells: E. coli BL21-Gold (DE3) pLysS; conditions: R15 3 μM, compound 100 μM, trypsin 5 nM, 5 min, 22°C
R15A, sequence (O75807 325-636, stated change not applied): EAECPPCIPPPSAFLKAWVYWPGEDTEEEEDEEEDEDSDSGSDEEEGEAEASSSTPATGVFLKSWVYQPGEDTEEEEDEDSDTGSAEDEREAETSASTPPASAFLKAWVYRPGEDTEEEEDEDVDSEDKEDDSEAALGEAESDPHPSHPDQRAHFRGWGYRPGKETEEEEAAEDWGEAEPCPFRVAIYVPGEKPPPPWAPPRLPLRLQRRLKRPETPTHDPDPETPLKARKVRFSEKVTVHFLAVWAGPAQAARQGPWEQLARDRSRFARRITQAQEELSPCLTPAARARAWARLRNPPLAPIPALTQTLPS
Description: Reactions were initiated by addition of 5 nM of trypsin from bovine pancreas (Sigma-Aldrich), made up in PBS, and allowed to proceed for 5 min at 22°C, with shaking at 350 rpm. […] Proteins were visualized by staining with InstantBlue Protein Stain (Expedeon).

brains of wild-type mice = assay: Monitoring translation rates in vivo, brains of wild-type mice; set-up: species or system mouse; conditions: 40 mg/kg
Description: 3 months old treatment- and test-naive C57BL/6J males were treated as indicated. 30 min before the end of treatment mice were injected intraperitoneally with 0.75 mCi/kg radioactive label – 75% ^35S-methionine + 25% ^35S-cystine (Hartmann Analytic). At the end of treatment mice were culled by cervical dislocation, brains were extracted, fresh-frozen in liquid nitrogen and kept at −80°C until use. Tissue was homogenized and lysed in Laemmli Buffer (1 mL for 0.5 mg tissue). Lysates were boiled at 95°C for 5 min, sonicated and resolved on Bolt SDS-PAGE 4%–12% Bis-Tris gels (ThermoFisher Scientific). Gels were then stained with InstantBlue (Expedeon) and after the gels had been imaged they were transferred to a 20% ethanol, 7% acetic acid, 4% glycerol solution for 10 min. This was to prevent the gels from cracking while drying. The gels were transferred to filter paper and dried using a gel dryer. The gels were then exposed to a Storage Phosphor Screen (GE Healthcare) and analyzed by phosphorimaging using a Typhoon Imager Scanner (GE Healthcare).

[1] = Monitoring Raphin1 stability in cell culture media; type: physicochemical; conditions: 10 μM, 37°C, 0-10 hr, mass spectrometry
Description: Raphin1, 10 μM (from a 10 mM DMSO stock), was added to 20 mL of pre-warmed water or cell culture media, in tightly-sealed 20 mL glass vials to reduce evaporation and incubated in an incubator at 37°C. 50 μL samples were taken at 0, 1, 2, 5, 7.5 and 10 hr and added to an Eppendorf tube containing 200 μL of chilled acetonitrile and internal standards. The samples were stored in a −20°C freezer until the end of the study. The samples were then analyzed by mass spectrometry using a TQ-S micro Triple Quadrupole from Waters and compared against a standard curve prepared in the same manner as the samples.

[2] = HD^82Q mice, 2 mg/kg daily from 4 weeks of age, 2-month-old

[H]/N=C(\N)NN=Cc1cccc(Cl)c1Cl [Raphin1, (E)-2-(2,3-dichlorobenzylidene)hydrazine-1-carboximidamide]
Weight of HD^82Q mice (HD^82Q mice; 2 mg/kg once a day by oral gavage from 4 to ∼10 weeks of age): improved | Nuclear huntingtin inclusions in the cortex (HD^82Q mice; [2]): decreased | SDS-insoluble huntingtin assemblies in cortex (HD^82Q mice; [2]): decreased | Protease sensitivity of R15A (limited proteolysis, conformational change) (R15A): no effect | Time of translation recovery after administration (brains of wild-type mice; wild-type brains): ~6 h | Protein synthesis in the brains (in words) (brains of wild-type mice; wild-type mice): transiently reduced | Stability in cell culture media over time [1]: stable
